Several values for one entry are separate records, joined by “and”; a condition that tells them apart may be missing. Identical values can stand only once. Like-named read-outs stand apart in the source and are kept apart here.
Key:
[1] = test system: P. falciparum NF54 asexual blood-stage parasites; assay: 72-h asexual blood-stage replication assay (SYBR Green); type: cell-based, Plasmodium falciparum; set-up: key to asexual blood stages growth, dose-response: % growth; DMSO control = 100%, DHA/epoxomicin-treated = no growth
[2] = test system: cryopreserved human primary hepatocytes; assay: Human hepatocyte clearance (relay assay); settings: for % Remaining: 10 µM, single replicates
From the text: Briefly, cryopreserved human primary hepatocytes were thawed and cultured as described above.

[3] = test system: P. falciparum Pf3D7^0087/N9; assay: Single dose in vivo efficacy in humanized NSG mice; set-up: species or system Plasmodium falciparum
Procedure, shortened: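 Female NSG mice engrafted daily with human erythrocytes from day -11 to day 6, then infected with P. falciparum Pf3D7^0087/N9. On day 4, groups of n = 2 received one oral-gavage dose of pantothenamide or chloroquine (50 mg/kg).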

[4] = test system: P. falciparum field isolates from Uganda; assay: Ex vivo growth inhibition assay, Uganda field isolates; type: cell-based, Plasmodium falciparum; settings: N = 230 isolates
Description: An ex vivo growth inhibition assay was performed on fresh clinical P. falciparum isolates in Uganda. […] Parasite density was quantified by fluorescence after incubation with SYBR Green lysis buffer measured on a BMG Fluostar Optima plate reader, as previously described.

[5] = test system: P. falciparum NF54-HGL, dT648M, cT648M, cT627A asexual blood stages; assay: Asexual drug-sensitivity of AcAS mutant parasites; type: cell-based, Plasmodium falciparum
Description: Replication assays were performed using a SYBR Green method as described previously. Briefly, asynchronous parasites were diluted to 0.83% parasitemia, 3% hematocrit in 30 µl medium, and added to 30 µl of diluted compounds in medium (0.1% DMSO final concentration) in black 384-wells plates. After a 72-h incubation, 30 µl of SYBR Green diluted in lysis buffer was added according to the manufacturer’s protocol (Life Technologies). Fluorescence intensity was measured on a BioTek Synergy 2 Plate Reader after 1-h incubation and was normalized to a DMSO control (100% growth) and DHA- or epoxomicin-treatment (no growth). […] Parasite survival was assessed by flow cytometry on an Accuri C6 (BD Biosciences) with BD C6 Plus software using SYBR Green and MitoTracker Deep Red FM (Life Technologies) as nuclear stain and vital dye, respectively, and data were analyzed using FlowJo (10.5.0). […] Luminescence was measured after 72 h using the Renilla-Glo(R) Luciferase Assay System (Promega E2750) and the GlomAX® Discover Multimode Microplate Reader (Promega). The luminescence values were normalized to DMSO vehicle (100% growth) and 200 nM chloroquine-treated (no growth) samples as controls.
The mutation found in selected drug-resistant parasites was verified by introducing the point mutations in AcAS (T648M and T627A) in NF54-HGL parasites using a CRISPR-Cas9 system as described previously. The oligonucleotides for the guide RNA and the donor template were cloned into a pDC2-based plasmid containing a Cas9 and guide cassette, using the BbsI and EcoRI/AatII restriction sites, respectively. Donor DNA was amplified by (overlap-extension) PCR amplification from genomic P. falciparum DNA and oligonucleotides for the guide RNAs were ordered (Sigma-Aldrich). The correct sequence and integration of both inserts were confirmed by Sanger Sequencing.

[6] = test system: P. falciparum T648M / T627A AcAS mutant gametocytes; type: cell-based, Plasmodium falciparum
Description: Gametocyte viability assays on NF54-HGL parasites were performed using an adapted high-throughput protocol as previously described[15],[64]. In short, asexual blood-stage parasite cultures were set up at 1% parasitemia in a semi-automated shaker system at 5% hematocrit. From day four until day eight or nine, parasites were treated with 50 mM N-acetyl glucosamine to eliminate all asexual blood-stage parasites. Subsequently, gametocytes were isolated by a Percoll density gradient centrifugation. At day 11, gametocytes were seeded (5,000 per well) in 30 µl in white 384-well plates containing 30 µl of compounds diluted in medium (0.1% DMSO). After a 72-h incubation, 30 µl of ONE-Glo reagent (Promega) was added according to manufacturer’s protocol and luminescence was quantified using the BioTek Synergy 2 Plate reader. Values were normalized to DMSO- and epoxomicin or dihydroartemisinin-treated controls.

[7] = Plasma protein binding, mouse

Q: Which “in vitro-determined IC99” value [1] does the source give for C[C@@H](CNC(=O)[C@H](O)C(C)(C)CO)NC(=O)c1cc(F)c(F)cc1F [MMV693183] here?
A: 36.1 nM

Q: And the “asexual blood stages growth, dose-response” value (shortened to “asexual blood stages growth”) ([1]; Log concentration (M) -8.5)?
A: 38.5 and 30.4 and 47.25 and 30.7

Q: And the “asexual blood stages growth” value ([1]; Log concentration (M) -9)?
A: 74.05 and 74.55 and 77.05 and 67.5

Q: What about the “asexual blood stages growth” value ([1]; Log concentration (M) -9.5) of the same molecule?
A: 92.6 and 74.65 and 93.65 and 69.75

Q: What about the “asexual blood stages growth” value ([1]; Log concentration (M) -10) of the same molecule?
A: 93.45 and 77.05 and 101.75 and 92

Q: And the IC50 ([1]; asexual blood stages NF54 parasites, read-out: IC50)?
A: 2.8 nM

Q: And the IC50 ([1]; per replicate experiment, read-out: IC50, asexual blood stages)?
A: 2.37 nM and 2.81 nM and 2.66 nM and 2.15 nM

Q: What about the “% Remaining” value ([2]; hepatocyte donor HC02, 0 h) of the same molecule?
A: 100.0%

Q: And the “% Remaining” value ([2]; hepatocyte donor HC02, 6 h)?
A: 77.4% and 91.4%

Q: What about the “% Remaining” value ([2]; hepatocyte donor HC02, 24 h) of the same molecule?
A: 90.3% and 124.4%

Q: And the “% Remaining” value ([2]; hepatocyte donor HC02, 48 h)?
A: 87.4% and 110.8%

Q: And the “% Remaining” value ([2]; hepatocyte donor HC02, 72 h)?
A: 63.9% and 86.8%

Q: And the “% Remaining” value ([2]; hepatocyte donor HC06, 0 h)?
A: 100.0%

Q: And the “% Remaining” value ([2]; hepatocyte donor HC06, 3 h)?
A: 77.2% and 88.0%

Q: And the “% Remaining” value ([2]; hepatocyte donor HC06, 6 h)?
A: 79.3% and 91.3%

Q: What about the “% Remaining” value ([2]; hepatocyte donor HC06, 24 h) of the same molecule?
A: 87.0% and 115.0%

Q: And the “% Remaining” value ([2]; hepatocyte donor HC06, 48 h)?
A: 64.3% and 81.2%

Q: And the “% Remaining” value ([2]; hepatocyte donor HC06, 72 h)?
A: 61.0% and 75.3%

Q: What about the “% Remaining” value ([2]; hepatocyte donor HC425, 0 h) of the same molecule?
A: 100.0%

Q: And the “% Remaining” value ([2]; hepatocyte donor HC425, 6 h)?
A: 79.3% and 88.2%

Q: And the “% Remaining” value ([2]; hepatocyte donor HC425, 24 h)?
A: 68.0% and 93.2%

Q: What about the “% Remaining” value ([2]; hepatocyte donor HC425, 48 h) of the same molecule?
A: 73.6% and 94.3%

Q: And the “% Remaining” value ([2]; hepatocyte donor HC425, 72 h)?
A: 68.2% and 91.6%

Q: What about the “% Remaining” value ([2]; hepatocyte donor HC1010, 0 h) of the same molecule?
A: 100.0%

Q: And the “% Remaining” value ([2]; hepatocyte donor HC1010, 1 h)?
A: 120.3% and 86.1% and 104.1% and 69.6%

Q: And the “% Remaining” value ([2]; hepatocyte donor HC1010, 6 h)?
A: 88.7% and 55.7% and 88.0% and 45.9%

Q: And the “% Remaining” value ([2]; hepatocyte donor HC1010, 24 h)?
A: 90.4% and 62.9% and 77.2% and 55.3%

Q: What about the “% Remaining” value ([2]; hepatocyte donor HC1010, 48 h) of the same molecule?
A: 70.7% and 54.4% and 57.7% and 44.1%

Q: And the “% Remaining” value ([2]; hepatocyte donor HC1010, 72 h)?
A: 34.1% and 43.9% and 31.3% and 51.9%

Q: And the CLint ([2]; donor HC02)?
A: 0.082 µL/min/million cells

Q: What about the CLint ([2]; donor HC06) of the same molecule?
A: 0.142 µL/min/million cells

Q: What about the CLint ([2]; donor HC425) of the same molecule?
A: 0.0695 µL/min/million cells

Q: What about the “Human hepatocyte CLint” value ([2]; human, hepatocytes) of the same molecule?
A: 0.4 µl/min/10^6 cells

Q: What about the “human hepatocyte clearance, four donors” value ([2]; range of donors) of the same molecule?
A: 0.07 to 0.4 µl/min/10^6 cells

Q: What about the Parasitemia ([3]; day 5 post infection, 50 mg/kg p.o. on day 4, per mouse, 50 mg/kg) of the same molecule?
A: 0.2 and 0.29

Q: What about the Parasitemia ([3]; day 6 post infection, per mouse) of the same molecule?
A: 0.03 and 0.02

Q: And the Parasitemia ([3]; day 7 post infection, per mouse)?
A: 0

Q: And the parasitemia outcome ([3]; single 50 mg/kg oral gavage on day 4, over three days)?
A: reduced parasitemias below detectable levels

Q: And the IC50 ([4]; read-out: IC50 maximum)?
A: 11 nM

Q: What about the IC50 ([4]; read-out: IC50 minimum) of the same molecule?
A: 0.3 nM

Q: What about the “sensitivity of T627A AcAS mutant” value [5] of the same molecule?
A: also resistant to MMV693183

Q: What about the IC50 shift asexual ([5]; CRISPR cT648M) of the same molecule?
A: 49 ×

Q: What about the IC50 shift ([5]; NF54 selected at 7 nM) of the same molecule?
A: 77 x

Q: What about the IC50 shift ([5]; selected resistant parasites vs parent, asexual growth assay) of the same molecule?
A: 13-77 ×

Q: What about the IC50 shift sexual ([6]; CRISPR cT648M) of the same molecule?
A: > 50 ×

Q: And the IC50 shift gametocytes ([6]; selected resistant (dT648M) gametocytes)?
A: > 50 ×

Q: What about the plasma protein binding [7] of the same molecule?
A: 33%

Reference: article PMC9021288 (Nature Communications, 2022)
